Reference: patent US20090069565A1, “NEW INDOLE DERIVATIVES AS FACTOR XA INHIBITORS” (priority 2001, published 2009)
pKi: −log10 of the molar value. Where two headings read alike, the source gives them in different places.

Target: human factor Xa (Homo sapiens, UniProt P00742)
Assay: Factor Xa assay (chromogenic, substrate S-2765);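 further: purified enzyme preincubated with inhibitor for 10 min before substrate addition, final reaction volume 100 µl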
Format: biochemical
[1] = inhibition constant for factor Xa, purified enzyme 0.5 nM, substrate S-2765 140 μM, 25° C., pH 7.8, Ki=IC50/{1+(substrate concentration/Km)}, read-out: Ki(FXa)

Chain of human factor Xa (P00742 235-488 limits assumed): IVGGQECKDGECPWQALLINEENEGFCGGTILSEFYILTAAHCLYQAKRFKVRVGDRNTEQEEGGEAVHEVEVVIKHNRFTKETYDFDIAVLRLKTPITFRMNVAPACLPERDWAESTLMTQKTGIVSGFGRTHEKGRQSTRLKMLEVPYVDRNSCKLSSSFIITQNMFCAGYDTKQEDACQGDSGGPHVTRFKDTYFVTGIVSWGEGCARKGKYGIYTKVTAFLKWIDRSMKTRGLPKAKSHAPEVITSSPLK
Chain of human factor Xa (P00742 41-179 partner limits assumed): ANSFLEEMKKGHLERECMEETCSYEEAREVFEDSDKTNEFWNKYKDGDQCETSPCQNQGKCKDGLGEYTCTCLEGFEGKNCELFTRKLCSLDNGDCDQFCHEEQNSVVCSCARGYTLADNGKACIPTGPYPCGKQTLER

Row | SMILES | pKi (read-out: Ki(FXa)) | further results
1 | CN1CCC(NC(=O)c2cc3ccccc3n2Cc2cc(-c3ccc(Cl)s3)on2)CC1 [Example 187, 1-[5-(5-Chloro-thiophen-2-yl)-isoxazol-3-ylmethyl]-1H-indole-2-carboxylic acid (1-methyl-piperidin-4-yl)-amide] | – | pKi [1]: 7.40
2 | CCN1CC[C@@H](NC(=O)c2cc3ccccc3n2Cc2cc(-c3ccc(Cl)s3)on2)C1 [Example 220, R-1-[5-(5-Chloro-thiophen-2-yl)-isoxazol-3-ylmethyl]-1H-indole-2-carboxylic acid (1-ethyl-pyrrolidin-3-yl)-amide] | 6.99 | –
3 | CC(C)N1CCC(NC(=O)c2cc3ccccc3n2CCc2ccc(Cl)cc2Cl)CC1 [Example 170, 1-[2-(2,4-Dichloro-phenyl)-ethyl]-1H-indole-2-carboxylic acid (1-isopropyl-piperidin-4-yl)-amide] | – | pKi [1]: 6.33
4 | CC(C)N1CCC(NC(=O)c2cc3c(OCc4ccccc4)cccc3n2Cc2cc(-c3ccc(Cl)s3)on2)CC1 [Example 19] | 7.30 | –
5 | Cc1cccc2c(C#N)c(C(=O)NC3CCN(C(C)C)CC3)n(Cc3cc(-c4ccc(Cl)s4)on3)c12 [Example 161, 1-[5-(5-Chloro-thiophen-2-yl)-isoxazol-3-ylmethyl]-3-cyano-7-methyl-1H-indole-2-carboxylic acid (1-isopropyl-piperidin-4-yl)-amide] | – | pKi: 10.00
6 | COc1cccc(Cn2c(C(=O)NC3CCN(C(C)C)CC3)cc3cc(C)ccc32)c1 [Example 69, 1-(3-Methoxy-benzyl)-5-methyl-1H-indole-2-carboxylic acid (1-isopropyl-piperidin-4-yl)-amide] | 6.80 | –
7 | CC(C)N1CCC(NC(=O)c2cc3cc(Cl)cc(Cl)c3n2Cc2cc(-c3ccc(Cl)s3)on2)CC1 [Example 181, 5,7-Dichloro-1-[5-(5-chloro-thiophen-2-yl)-isoxazol-3-ylmethyl]-1H-indole-2-carboxylic acid (1-isopropyl-piperidin-4-yl)-amide] | 7.85 | –
8 | CN1CCC(N2CCN(C(=O)c3cc4ccccc4n3Cc3cc(-c4ccc(Cl)s4)on3)CC2)CC1 [Example 39, {1-[5-(5-Chloro-thiophen-2-yl)-isoxazol-3-ylmethyl]-1H-indol-2-yl}-[4-(1-methyl-piperidin-4-yl)-piperazin-1-yl]-methanone] | 5.70 | –
9 | CC(C)N1CCC(NC(=O)c2c(Cl)c3ccccc3n2Cc2cc(-c3ccc(Cl)s3)on2)CC1 [Example 122, 3-Chloro-1-[5-(5-chloro-thiophen-2-yl)-isoxazol-3-ylmethyl]-1H-indole-2-carboxylic acid (1-isopropyl-piperidin-4-yl)-amide] | – | pKi [1]: 8.70
10 | CCOC(=O)OC(C)OC(=O)c1cccc2c1cc(C(=O)NC1CCN(C(C)C)CC1)n2Cc1cc(-c2ccc(Cl)s2)on1 (stereo not shown) [Example 269, 1-[5-(5-Chloro-thiophen-2-yl)-isoxazol-3-ylmethyl]-2-(1-isopropyl-piperidin-4-ylcarbamoyl)-1H-indole-4-carboxylic acid 1-ethoxycarbonyloxy-ethyl ester] | 8.15 | –
11 | O=C(Cn1c(C(=O)NC2CCN(c3ccncc3)CC2)cc2ccccc21)Nc1ccc(Cl)cc1 [Example 253, 1-[(4-chloro-phenylcarbamoyl)-methyl]-1H-indole-2-carboxylic acid (3,4,5,6-tetrahydro-2H-[1,4′]bipyridinyl-4-yl)-amide] | 6.47 | –
12 | Cc1cccc2c1cc(C(=O)NC1CCN(C(C)C)CC1)n2Cc1cc(-c2ccc(Cl)s2)on1 [Example 174, 1-[5-(5-Chloro-thiophen-2-yl)-isoxazol-3-ylmethyl]-4-methyl-1H-indole-2-carboxylic acid (1-isopropyl-piperidin-4-yl)-amide] | – | pKi [1]: 8.52
13 | CCOC(=O)CN(C(=O)c1cc2c(C)ccc(C)c2n1Cc1cc(-c2ccc(Cl)s2)on1)C1CCN(C(C)C)CC1 [Example 224, [{1-[5-(5-Chloro-thiophen-2-yl)-isoxazol-3-ylmethyl]-4,7-dimethyl-1H-indole-2-carbonyl}-(1-isopropyl-piperidin-4-yl)-amino]-acetic acid ethyl ester] | 7.68 | –
14 | O=C(NC1CCN(C2CC2)CC1)c1cc2ccccc2n1Cc1cc(-c2ccc(Cl)s2)on1 [Example 48, 1-[5-(5-Chloro-thiophen-2-yl)-isoxazol-3-ylmethyl]-1H-indole-2-carboxylic acid (1-cyclopropyl-piperidin-4-yl)-amide] | – | pKi [1]: 7.57
15 | CC(C)N1CCC(NC(=O)c2cc3ccccc3n2Cc2cccc(Cl)c2)CC1 [Example 163, 1-(3-Chloro-benzyl)-1H-indole-2-carboxylic acid (1-isopropyl-piperidin-4-yl)-amide] | – | pKi [1]: 6.18
16 | CC(C)N1CCC(NC(=O)c2c(-c3ccccc3)c3ccccc3n2Cc2cc(-c3ccc(Cl)s3)on2)CC1 [Example 16] | – | pKi [1]: 7.26
17 | CC(C)N1CCC(NC(=O)c2cc3c(C(F)(F)F)cccc3n2Cc2cc(-c3ccc(Cl)s3)on2)CC1 [Example 177, 1-[5-(5-Chloro-thiophen-2-yl)-isoxazol-3-ylmethyl]-4-trifluoromethyl-1H-indole-2-carboxylic acid (1-isopropyl-piperidin-4-yl)-amide] | 7.82 | –
18 | CCN1CCC(NC(=O)c2cc3ccccc3n2Cc2cc(-c3ccc(Cl)s3)on2)CC1 [Example 36, 1-[5-(5-Chloro-thiophen-2-yl)-isoxazol-3-ylmethyl]-1H-indole-2-carboxylic acid (1-ethyl-piperidin-4-yl)-amide] | – | pKi [1]: 7.74
19 | CS(=O)(=O)N1CCC(NC(=O)c2cc3ccccc3n2Cc2cc(-c3ccc(Cl)s3)on2)CC1 [Example 191, 1-[5-(5-Chloro-thiophen-2-yl)-isoxazol-3-ylmethyl]-1H-indole-2-carboxylic acid (1-methanesulfonyl-piperidin-4-yl)-amide] | 6.87 | –
20 | CC(C)N1CCC(NC(=O)c2cc3c(C(=O)O)cccc3n2Cc2cc(-c3ccc(Cl)s3)on2)CC1 [Example 246, 1-[5-(5-Chloro-thiophen-2-yl)-isoxazol-3-ylmethyl]-2-(1-isopropyl-piperidin-4-ylcarbamoyl)-1H-indole-4-carboxylic acid] | 8.40 | –
21 | CC(OC(=O)c1cccc2c1cc(C(=O)NC1CCN(C(C)C)CC1)n2Cc1cc(-c2ccc(Cl)s2)on1)OC(=O)C(C)(C)C (stereo not shown) [Example 272, 1-[5-(5-Chloro-thiophen-2-yl)-isoxazol-3-ylmethyl]-2-(1-isopropyl-piperidin-4-ylcarbamoyl)-1H-indole-4-carboxylic acid 1-(2,2-dimethyl-propionyloxy)-ethyl ester] | 7.77 | –
22 | O=C(NC1CCN(c2ccncc2)CC1)c1cc2cc([N+](=O)[O-])ccc2n1Cc1cc(-c2ccc(Cl)s2)on1 [Example 30, 1-[5-(5-Chloro-thiophen-2-yl)-isoxazol-3-ylmethyl]-5-nitro-1H-indole-2-carboxylic acid (3,4,5,6-tetrahydro-2H-[1,4′]bipyridinyl-4-yl)-amide] | 7.60 | –
23 | CCOC(=O)c1ccc2c(c1)cc(C(=O)NC1CCN(C(C)C)CC1)n2Cc1cc(-c2ccc(Cl)s2)on1 [Example 238, 1-[5-(5-Chloro-thiophen-2-yl)-isoxazol-3-ylmethyl]-2-(1-isopropyl-piperidin-4-ylcarbamoyl)-1H-indole-5-carboxylic acid ethyl ester] | 7.96 | –
24 | CC(C)N1CCC(NC(=O)c2cc3cc(OC(F)(F)F)ccc3n2Cc2cc(-c3ccc(Cl)s3)on2)CC1 [Example 12] | 6.94 | –

Second part, led by results:

Row | pKi (read-out: Ki(FXa)) | SMILES | further results
25 | 9.00 | CC(C)N1CCC(NC(=O)c2cc3cc(F)cc(F)c3n2CC(=O)Nc2ccc(Cl)cn2)CC1 [Example 218, 1-[(5-Chloro-pyridin-2-ylcarbamoyl)-methyl]-5,7-difluoro-1H-indole-2-carboxylic acid (1-isopropyl-piperidin-4-yl)-amide] | –
26 | 6.73 | COc1cccc(Cn2c(C(=O)NC3CCN(C(C)C)CC3)cc3cc(Cl)ccc32)c1 [Example 67, 5-Chloro-1-(3-methoxy-benzyl)-1H-indole-2-carboxylic acid (1-isopropyl-piperidin-4-yl)-amide] | –
27 | 7.29 | CCOC(=O)CN(C(=O)c1cc2c(Cl)cccc2n1Cc1cc(-c2ccc(Cl)s2)on1)C1CCN(C(C)C)CC1 [Example 228, [{4-Chloro-1-[5-(5-chloro-thiophen-2-yl)-isoxazol-3-ylmethyl]-1H-indole-2-carbonyl}-(1-isopropyl-piperidin-4-yl)-amino]-acetic acid ethyl ester] | –
28 | 6.30 | Cc1cccc2cc(C(=O)N3CCC(NC(C)C)CC3)n(Cc3cc(-c4ccc(Cl)s4)on3)c12 [Example 35, {1-[5-(5-Chloro-thiophen-2-yl)-isoxazol-3-ylmethyl]-7-methyl-1H-indol-2-yl}-(4-isopropylamino-piperidin-1-yl)-methanone] | –
29 | 6.74 | COc1cc2cc(C(=O)NC3CCN(C(C)C)CC3)n(Cc3cc(-c4ccc(Cl)s4)on3)c2cc1OC [Example 10] | –
30 | 6.96 | CCOC(=O)CN(C(=O)c1cc2c(C(F)(F)F)cccc2n1Cc1cc(-c2ccc(Cl)s2)on1)C1CCN(C(C)C)CC1 [Example 223, [{1-[5-(5-Chloro-thiophen-2-yl)-isoxazol-3-ylmethyl]-4-trifluoromethyl-1H-indole-2-carbonyl}-(1-isopropyl-piperidin-4-yl)-amino]-acetic acid ethyl ester] | –
31 | 6.66 | CCc1ccc2c(c1)cc(C(=O)NC1CCN(C(C)C)CC1)n2Cc1cc(-c2ccc(Cl)s2)on1 [Example 22] | –
32 | 5.71 | CC(C)N1CCC(NC(=O)c2cc3ccccc3n2Cc2ccccc2Cl)CC1 [Example 148, 1-(2-Chloro-benzyl)-1H-indole-2-carboxylic acid (1-isopropyl-piperidin-4-yl)-amide] | –
33 | 6.76 | CC(C)N1CCC(N(CC(=O)O)C(=O)c2cc3c(C(F)(F)F)cccc3n2Cc2cc(-c3ccc(Cl)s3)on2)CC1 [Example 229, [{1-[5-(5-Chloro-thiophen-2-yl)-isoxazol-3-ylmethyl]-4-trifluoromethyl-1H-indole-2-carbonyl}-(1-isopropyl-piperidin-4-yl)-amino]-acetic acid] | –
34 | 6.25 | O=C(NC1CCN(Cc2ncc[nH]2)CC1)c1cc2ccccc2n1Cc1cc(-c2ccc(Cl)s2)on1 [Example 264, 1-[5-(5-chloro-thiophen-2-yl)-isoxazol-3-ylmethyl]-1H-indole-2-carboxylic acid [1-(1H-imidazol-2-ylmethyl)-piperidin-4-yl]-amide] | –
